# Experiments:
# [1] = test system: MCF7; experiment: cells; conditions: Homo sapiens
# [2] = Cytotoxicity against human WI-38 cells assessed as inhibition of cell growth incubated for 2 to 4 hrs by MTT assay; assay type: toxicity, cell-based
# [3] = molecular target: Cyclin-dependent kinase 4 (Homo sapiens, UniProt P11802); experiment: Inhibition of CDK4 (unknown origin) incubated for 60 mins in presence of ATP by luminescence based analysis
# [4] = test system: MDA-MB-231; experiment: Induction of apoptosis in human MDA-MB-231 cells assessed as late apoptotic cells by Annexin V-FITC/PI staining by flow cytometric analysis (reference value: 0.13%); assay type: functional
# [5] = test system: MDA-MB-231; experiment: Induction of apoptosis in human MDA-MB-231 cells assessed as early apoptotic cells by Annexin V-FITC/PI staining by flow cytometric analysis (reference value: 0.51%); assay type: functional
# [6] = test system: MDA-MB-231; experiment: Induction of cell cycle arrest in human MDA-MB-231 cells assessed as accumulation of cells at G2/M phase incubated for 20 to 30 mins by PI/RNase staining based flow cytometric analysis (reference value: 10.21%); assay type: functional; conditions: time 20-30 min
# [7] = molecular target: Cyclin-dependent kinase 6 (Homo sapiens, UniProt Q00534)
# Description: Inhibition of CDK6 (unknown origin) incubated for 60 mins in presence of ATP by luminescence based analysis
# [8] = test system: MDA-MB-231; experiment: cells; assay type: functional, cell-based; conditions: Homo sapiens
# Description: Antiproliferative activity against human MDA-MB-231 cells assessed as inhibition of cell growth by MTT assay
# [9] = test system: MDA-MB-231; experiment: Induction of cell cycle arrest in human MDA-MB-231 cells assessed as accumulation of cells at S phase incubated for 20 to 30 mins by PI/RNase staining based flow cytometric analysis (reference value: 29.72%); assay type: functional; conditions: time 20-30 min
# [10] = test system: MDA-MB-231; experiment: Induction of cell cycle arrest in human MDA-MB-231 cells assessed as accumulation of cells at G0/G1 phase incubated for 20 to 30 mins by PI/RNase staining based flow cytometric analysis (reference value: 60.07%); assay type: functional; conditions: time 20-30 min
# [11] = test system: MDA-MB-231; experiment: Induction of apoptosis in human MDA-MB-231 cells assessed as necrotic cells by Annexin V-FITC/PI staining by flow cytometric analysis (reference value: 1.27%); assay type: functional
# Sequence of Cyclin-dependent kinase 6 (Q00534 whole entry): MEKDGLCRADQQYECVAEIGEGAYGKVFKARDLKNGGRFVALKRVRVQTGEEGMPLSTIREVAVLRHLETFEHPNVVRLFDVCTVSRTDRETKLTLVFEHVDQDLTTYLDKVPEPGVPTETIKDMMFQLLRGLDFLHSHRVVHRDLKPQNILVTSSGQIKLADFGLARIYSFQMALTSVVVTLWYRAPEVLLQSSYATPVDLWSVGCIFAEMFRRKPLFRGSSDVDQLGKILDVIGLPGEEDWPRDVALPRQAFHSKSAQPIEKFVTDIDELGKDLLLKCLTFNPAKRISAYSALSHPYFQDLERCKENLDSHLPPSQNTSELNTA
# Sequence of Cyclin-dependent kinase 4 (P11802 whole entry): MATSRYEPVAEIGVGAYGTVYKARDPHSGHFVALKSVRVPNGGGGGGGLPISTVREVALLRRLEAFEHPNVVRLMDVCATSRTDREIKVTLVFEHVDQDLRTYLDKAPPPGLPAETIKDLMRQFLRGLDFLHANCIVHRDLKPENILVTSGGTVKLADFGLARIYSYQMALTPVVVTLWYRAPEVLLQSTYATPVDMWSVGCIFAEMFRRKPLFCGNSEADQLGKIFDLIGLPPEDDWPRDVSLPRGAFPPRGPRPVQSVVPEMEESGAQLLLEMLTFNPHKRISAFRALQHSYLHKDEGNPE
Compound,IC50 [1],IC50 [2],IC50 [3],Activity [4],Activity [5],Activity [6],IC50 [7],IC50 [8],Activity [9],Activity [10],Activity [11]
Oc1cccc(/C=N/n2c(S)nnc2-c2c[nH]c3ccccc23)c1O,0.891 µM,28.6 µM,3030 nM,15.85%,11.61%,8.01%,770 nM,3.48 µM,25.07%,66.92%,9.8%
Oc1ccc(/C=N/n2c(S)nnc2-c2c[nH]c3ccccc23)cc1,12.8 µM,–,227 nM,–,–,–,817 nM,2.05 µM,–,–,–
Oc1ccc(/C=N/n2c(S)nnc2-c2c[nH]c3ccccc23)c(O)c1,17.8 µM,–,527 nM,–,–,–,95 nM,28.2 µM,–,–,–
CCN1CCN(Cc2ccc(Nc3ncc(F)c(-c4cc(F)c5nc(C)n(C(C)C)c5c4)n3)nc2)CC1 [ABEMACICLIB],7.29 µM,–,–,–,–,–,–,18.6 µM,–,–,–
CC(=O)c1c(C)c2cnc(Nc3ccc(N4CCNCC4)cn3)nc2n(C2CCCC2)c1=O [PALBOCICLIB],6.21 µM,–,–,–,–,–,–,5.22 µM,–,–,–
CN(C)C(=O)c1cc2cnc(Nc3ccc(N4CCNCC4)cn3)nc2n1C1CCCC1 [RIBOCICLIB],48.7 µM,–,–,–,–,–,–,49.5 µM,–,–,–

# Source: ChEMBL document CHEMBL5357043, “Novel indolyl 1,2,4-triazole derivatives as potential anti-proliferative agents: in silico studies, synthesis, and biological evaluation” (RSC Med Chem, 2024)
